Test results taken from ChEMBL document CHEMBL1909046, “DrugMatrix in vitro pharmacology data”.

Legend:
Substance-K receptor = biological target: T1, Substance-K receptor (Homo sapiens, UniProt P21452); type: cell membranes, CHO, Membrane; settings: cho; also: in other assays of this panel Not Active means under 50% inhibition at 10 µM
T1 sequence (P21452 whole entry): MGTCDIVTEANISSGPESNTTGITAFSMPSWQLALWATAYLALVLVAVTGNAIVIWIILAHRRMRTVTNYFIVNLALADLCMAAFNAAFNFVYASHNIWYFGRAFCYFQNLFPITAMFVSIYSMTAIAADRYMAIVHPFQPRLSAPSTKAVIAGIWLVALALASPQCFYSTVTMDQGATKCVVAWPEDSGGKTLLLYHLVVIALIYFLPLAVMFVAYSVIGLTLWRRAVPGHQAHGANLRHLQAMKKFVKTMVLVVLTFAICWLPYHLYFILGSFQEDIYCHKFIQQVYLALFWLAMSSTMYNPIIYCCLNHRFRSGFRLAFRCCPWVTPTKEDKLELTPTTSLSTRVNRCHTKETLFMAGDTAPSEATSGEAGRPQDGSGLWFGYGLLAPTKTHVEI

Cytochrome P450 2C19 = Cytochrome P450 2C19 (Homo sapiens, UniProt P33261); settings: bti-tn-5b1-4; also: in other assays of this panel Not Active means under 50% inhibition at 10 µM
[1] = DRUGMATRIX: Purinergic P2X radioligand binding (ligand: [3H] alpha, beta-Methylene-ATP); type: cell membranes, Oryctolagus cuniculus, New Zealand albino, Urinary bladder, Membrane; settings: Not Active = under 50% inhibition at 10 µM
[2] = biological target: T2, Muscarinic acetylcholine receptor M4 (Homo sapiens, UniProt P08173); type: cell membranes, CHO-K1, Membrane; settings: cho-k1; also: in other assays of this panel Not Active means under 50% inhibition at 10 µM
T2 sequence (P08173 whole entry): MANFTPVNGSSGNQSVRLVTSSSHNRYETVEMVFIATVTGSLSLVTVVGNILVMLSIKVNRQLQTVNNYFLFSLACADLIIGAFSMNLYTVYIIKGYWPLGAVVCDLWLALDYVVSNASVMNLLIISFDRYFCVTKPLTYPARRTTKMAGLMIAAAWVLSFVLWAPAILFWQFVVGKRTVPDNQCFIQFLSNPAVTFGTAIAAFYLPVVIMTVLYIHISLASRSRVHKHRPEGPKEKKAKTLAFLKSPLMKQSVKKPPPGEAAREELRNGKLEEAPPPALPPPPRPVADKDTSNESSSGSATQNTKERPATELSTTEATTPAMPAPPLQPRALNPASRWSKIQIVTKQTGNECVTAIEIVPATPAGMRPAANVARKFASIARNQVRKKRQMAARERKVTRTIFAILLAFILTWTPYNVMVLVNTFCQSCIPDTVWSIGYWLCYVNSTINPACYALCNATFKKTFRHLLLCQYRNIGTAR

D(4) dopamine receptor = biological target: T3, D(4) dopamine receptor (Homo sapiens, UniProt P21917); test: DRUGMATRIX: Dopamine D4.2 radioligand binding (ligand: [3H] Spiperone); type: cell membranes, CHO-K1, Membrane; settings: cho-k1; Not Active = under 50% inhibition at 10 µM
T3 sequence (P21917 whole entry): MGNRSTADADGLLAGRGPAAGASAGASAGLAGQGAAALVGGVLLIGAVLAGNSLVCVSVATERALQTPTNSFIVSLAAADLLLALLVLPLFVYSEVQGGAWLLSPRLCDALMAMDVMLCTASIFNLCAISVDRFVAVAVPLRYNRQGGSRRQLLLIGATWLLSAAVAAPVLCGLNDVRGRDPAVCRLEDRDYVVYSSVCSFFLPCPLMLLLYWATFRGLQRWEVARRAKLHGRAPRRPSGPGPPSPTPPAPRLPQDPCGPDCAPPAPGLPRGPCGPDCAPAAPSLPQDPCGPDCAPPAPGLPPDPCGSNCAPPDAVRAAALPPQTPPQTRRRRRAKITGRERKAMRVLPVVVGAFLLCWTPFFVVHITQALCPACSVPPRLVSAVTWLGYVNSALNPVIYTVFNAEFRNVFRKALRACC

Leukotriene C4 synthase = biological target: T4, Leukotriene C4 synthase (Cavia porcellus, UniProt A6XA80); test: biochemical; type: tissue-based, Lung;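 also: enzyme inhibition assay of leukotriene C4 synthase, using LTA4 as the substrate; in other assays of this panel Not Active means under 50% inhibition at 10 µM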
T4 sequence (A6XA80 whole entry): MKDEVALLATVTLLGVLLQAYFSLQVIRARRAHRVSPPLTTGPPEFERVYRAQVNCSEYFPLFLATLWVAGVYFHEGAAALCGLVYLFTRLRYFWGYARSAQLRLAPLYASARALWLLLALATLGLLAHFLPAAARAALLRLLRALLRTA

[3] = biological target: T5, C-C chemokine receptor type 4 (Homo sapiens, UniProt P51679); type: cell membranes, Membrane; settings: chem-1; also: in other assays of this panel Not Active means under 50% inhibition at 10 µM
T5 sequence (P51679 whole entry): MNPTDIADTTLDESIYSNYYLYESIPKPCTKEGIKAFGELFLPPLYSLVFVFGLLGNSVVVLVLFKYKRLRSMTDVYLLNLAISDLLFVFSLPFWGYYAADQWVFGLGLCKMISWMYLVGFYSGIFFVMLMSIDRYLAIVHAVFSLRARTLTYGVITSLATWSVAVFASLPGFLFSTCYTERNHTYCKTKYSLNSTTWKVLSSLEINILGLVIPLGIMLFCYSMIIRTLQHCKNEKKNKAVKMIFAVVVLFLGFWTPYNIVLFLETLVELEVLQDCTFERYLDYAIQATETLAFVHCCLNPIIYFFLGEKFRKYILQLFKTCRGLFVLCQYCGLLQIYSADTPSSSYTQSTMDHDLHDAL

[4] = biological target: Beta-3 adrenergic receptor (Homo sapiens, UniProt P13945); test: DRUGMATRIX: Adrenergic beta3 radioligand binding (ligand: [125I] Cyanopindolol); type: cell membranes, HEK293, Membrane; settings: hek293; Not Active = under 50% inhibition at 10 µM
[5] = DRUGMATRIX: Sigma2 radioligand binding (ligand: [3H] Ifenprodil); type: cell membranes, Rattus norvegicus, Wistar, Brain, Membrane; settings: Not Active = under 50% inhibition at 10 µM
[6] = biological target: Tyrosine-protein kinase Fyn (Homo sapiens, UniProt P06241); test: biochemical; type: cell-based, Insect cells; settings: insect cells
Histamine H2 receptor = Histamine H2 receptor (Homo sapiens, UniProt P25021); type: cell membranes, CHO-K1, Membrane; settings: cho-k1; also: in other assays of this panel Not Active means under 50% inhibition at 10 µM
[7] = biological target: Sodium-dependent dopamine transporter (Homo sapiens, UniProt Q01959); test: DRUGMATRIX: Dopamine Transporter radioligand binding (ligand: [125I] RTI-55); type: cell membranes, CHO-K1, Membrane; settings: cho-k1; Not Active = under 50% inhibition at 10 µM
[8] = biological target: 5-hydroxytryptamine receptor 4 (Cavia porcellus, UniProt O70528); type: cell membranes, Dunkin-Hartley, Striatum, Membrane; also: in other assays of this panel Not Active means under 50% inhibition at 10 µM
[9] = DRUGMATRIX: Glutamate, NMDA, Phencyclidine radioligand binding (ligand: [3H] TCP); type: cell membranes, Rattus norvegicus, Wistar, Cerebral cortex, Membrane; settings: Not Active = under 50% inhibition at 10 µM
[10] = biological target: C-C chemokine receptor type 2 (Homo sapiens, UniProt P41597); type: cell membranes, CHO-K1, Membrane; settings: cho-k1; also: in other assays of this panel Not Active means under 50% inhibition at 10 µM
[11] = DRUGMATRIX: Phosphodiesterase PDE3 enzyme inhibition (substrate: [3H]cAMP + cAMP); type: tissue-based, Homo sapiens; settings: platelet, Not Active = under 50% inhibition at 10 µM
[12] = DRUGMATRIX: Glutamate, Kainate radioligand binding (ligand: [3H] Kainic acid); type: cell membranes, Rattus norvegicus, Wistar, Brain, Membrane; settings: Not Active = under 50% inhibition at 10 µM

Sequence of Tyrosine-protein kinase Fyn (P06241 whole entry): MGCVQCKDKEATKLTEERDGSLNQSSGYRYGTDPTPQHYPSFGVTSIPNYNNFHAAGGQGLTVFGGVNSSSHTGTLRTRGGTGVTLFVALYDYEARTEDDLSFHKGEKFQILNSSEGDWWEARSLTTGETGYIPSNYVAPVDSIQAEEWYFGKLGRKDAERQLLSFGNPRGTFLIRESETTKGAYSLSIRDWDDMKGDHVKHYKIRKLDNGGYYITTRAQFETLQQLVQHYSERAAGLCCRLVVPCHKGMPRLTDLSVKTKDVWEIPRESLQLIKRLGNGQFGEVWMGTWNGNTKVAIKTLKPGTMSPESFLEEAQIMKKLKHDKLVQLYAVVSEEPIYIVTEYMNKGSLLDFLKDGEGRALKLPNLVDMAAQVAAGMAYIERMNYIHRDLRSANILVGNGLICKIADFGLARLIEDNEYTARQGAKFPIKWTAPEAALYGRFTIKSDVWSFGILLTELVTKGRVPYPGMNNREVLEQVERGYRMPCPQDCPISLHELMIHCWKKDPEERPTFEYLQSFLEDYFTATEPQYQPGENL
Sequence of Beta-3 adrenergic receptor (P13945 whole entry): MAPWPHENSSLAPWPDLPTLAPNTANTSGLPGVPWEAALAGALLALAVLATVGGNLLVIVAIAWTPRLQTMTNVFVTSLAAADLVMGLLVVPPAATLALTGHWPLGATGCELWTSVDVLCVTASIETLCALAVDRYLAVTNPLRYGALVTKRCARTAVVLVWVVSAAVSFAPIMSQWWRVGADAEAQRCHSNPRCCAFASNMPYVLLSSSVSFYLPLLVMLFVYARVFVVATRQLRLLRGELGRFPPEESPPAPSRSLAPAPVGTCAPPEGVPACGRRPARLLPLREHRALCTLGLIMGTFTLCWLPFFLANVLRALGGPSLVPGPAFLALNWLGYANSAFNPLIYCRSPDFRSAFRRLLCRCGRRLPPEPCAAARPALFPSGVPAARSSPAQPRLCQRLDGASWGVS
Sequence of Histamine H2 receptor (P25021 whole entry): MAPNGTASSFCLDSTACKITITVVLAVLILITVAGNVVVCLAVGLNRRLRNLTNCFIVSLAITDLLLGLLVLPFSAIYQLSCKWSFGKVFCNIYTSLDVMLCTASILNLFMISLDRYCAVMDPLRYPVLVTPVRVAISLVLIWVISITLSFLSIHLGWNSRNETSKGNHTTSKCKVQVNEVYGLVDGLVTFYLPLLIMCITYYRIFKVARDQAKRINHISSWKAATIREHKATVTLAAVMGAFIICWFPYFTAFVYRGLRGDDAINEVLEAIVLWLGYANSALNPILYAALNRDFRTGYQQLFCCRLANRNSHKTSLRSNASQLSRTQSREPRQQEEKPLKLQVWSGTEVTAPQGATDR
Sequence of Cytochrome P450 2C19 (P33261 whole entry): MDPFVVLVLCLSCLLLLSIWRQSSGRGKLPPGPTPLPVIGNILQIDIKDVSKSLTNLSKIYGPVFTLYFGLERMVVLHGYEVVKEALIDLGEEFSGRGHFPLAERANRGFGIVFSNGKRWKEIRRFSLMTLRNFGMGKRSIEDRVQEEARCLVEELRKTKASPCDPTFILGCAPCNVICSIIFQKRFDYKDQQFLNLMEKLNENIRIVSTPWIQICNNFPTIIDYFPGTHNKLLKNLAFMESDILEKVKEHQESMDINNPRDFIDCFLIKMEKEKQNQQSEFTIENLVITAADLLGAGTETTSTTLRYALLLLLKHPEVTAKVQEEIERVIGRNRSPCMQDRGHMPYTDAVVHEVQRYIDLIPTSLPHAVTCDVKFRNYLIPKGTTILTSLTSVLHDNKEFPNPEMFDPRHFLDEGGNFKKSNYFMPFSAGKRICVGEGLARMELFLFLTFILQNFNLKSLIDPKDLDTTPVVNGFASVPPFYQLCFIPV
Sequence of C-C chemokine receptor type 2 (P41597 whole entry): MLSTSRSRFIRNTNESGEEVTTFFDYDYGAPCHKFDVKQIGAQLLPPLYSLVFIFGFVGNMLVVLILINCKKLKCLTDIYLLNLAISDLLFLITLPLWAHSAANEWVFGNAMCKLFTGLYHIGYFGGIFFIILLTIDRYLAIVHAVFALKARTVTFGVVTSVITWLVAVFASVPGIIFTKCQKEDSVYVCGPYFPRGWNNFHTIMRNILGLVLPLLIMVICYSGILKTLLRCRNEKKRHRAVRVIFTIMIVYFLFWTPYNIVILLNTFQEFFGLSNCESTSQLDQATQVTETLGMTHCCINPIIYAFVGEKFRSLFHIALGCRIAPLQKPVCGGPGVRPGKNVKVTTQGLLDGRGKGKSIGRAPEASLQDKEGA
Sequence of Sodium-dependent dopamine transporter (Q01959 whole entry): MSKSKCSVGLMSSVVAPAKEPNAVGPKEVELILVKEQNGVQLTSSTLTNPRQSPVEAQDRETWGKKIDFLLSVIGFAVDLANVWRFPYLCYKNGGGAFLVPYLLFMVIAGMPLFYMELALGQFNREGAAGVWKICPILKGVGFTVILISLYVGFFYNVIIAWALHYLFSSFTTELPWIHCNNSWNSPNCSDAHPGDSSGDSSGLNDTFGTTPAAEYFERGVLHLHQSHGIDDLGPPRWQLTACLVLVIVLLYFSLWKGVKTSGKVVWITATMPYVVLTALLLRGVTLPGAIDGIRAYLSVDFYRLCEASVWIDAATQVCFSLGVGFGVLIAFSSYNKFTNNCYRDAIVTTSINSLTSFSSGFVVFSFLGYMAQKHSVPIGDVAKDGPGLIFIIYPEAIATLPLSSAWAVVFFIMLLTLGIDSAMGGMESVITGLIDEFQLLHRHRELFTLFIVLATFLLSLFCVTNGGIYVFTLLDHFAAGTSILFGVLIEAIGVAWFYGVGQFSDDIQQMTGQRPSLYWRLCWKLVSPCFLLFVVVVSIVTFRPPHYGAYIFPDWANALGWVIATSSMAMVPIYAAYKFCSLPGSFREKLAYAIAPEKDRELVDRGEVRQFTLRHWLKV
Sequence of 5-hydroxytryptamine receptor 4 (O70528 whole entry): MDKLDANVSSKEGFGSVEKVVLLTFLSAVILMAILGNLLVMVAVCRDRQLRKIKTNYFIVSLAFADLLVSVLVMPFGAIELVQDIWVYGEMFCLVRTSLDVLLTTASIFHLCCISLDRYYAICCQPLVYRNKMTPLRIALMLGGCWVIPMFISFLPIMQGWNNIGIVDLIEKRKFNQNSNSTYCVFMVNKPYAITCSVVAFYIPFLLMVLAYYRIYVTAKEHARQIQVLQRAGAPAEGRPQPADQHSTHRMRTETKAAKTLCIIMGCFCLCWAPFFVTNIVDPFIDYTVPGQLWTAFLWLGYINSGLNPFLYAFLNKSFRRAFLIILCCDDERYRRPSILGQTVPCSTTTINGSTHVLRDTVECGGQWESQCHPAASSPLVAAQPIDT

Row | Substance | IC50 (Substance-K receptor) | Ki (Substance-K receptor) | IC50 (Cytochrome P450 2C19) | Ki (Cytochrome P450 2C19) | IC50 [1] | Ki [1] | IC50 [2] | Ki [2] | IC50 (D(4) dopamine receptor) | Ki (D(4) dopamine receptor) | IC50 (Leukotriene C4 synthase) | Ki (Leukotriene C4 synthase) | IC50 [3] | Ki [3] | IC50 [4] | Ki [4] | IC50 [5] | Ki [5] | IC50 (Histamine H2 receptor) | Ki (Histamine H2 receptor) | also measured
1 | CARBOPLATIN | Not Active | Not Active | Not Active | Not Active | Not Active | Not Active | Not Active | Not Active | Not Active | Not Active | Not Active | Not Active | Not Active | Not Active | Not Active | Not Active | Not Active | Not Active | Not Active | Not Active | IC50 [6]: Not Active; Ki [6]: Not Active; IC50 [7]: Not Active; Ki [7]: Not Active; IC50 [8]: Not Active; Ki [8]: Not Active; IC50 [9]: Not Active; Ki [9]: Not Active; IC50 [10]: Not Active; Ki [10]: Not Active; IC50 [11]: Not Active; Ki [11]: Not Active; IC50 [12]: Not Active; Ki [12]: Not Active
2 | CISPLATIN | Not Active | Not Active | Not Active | Not Active | Not Active | Not Active | Not Active | Not Active | Not Active | Not Active | Not Active | Not Active | Not Active | Not Active | Not Active | Not Active | Not Active | Not Active | Not Active | Not Active | IC50 ([6]; read-out: IC50): 4.77 µM; IC50 [7]: Not Active; Ki [7]: Not Active; IC50 [8]: Not Active; Ki [8]: Not Active; IC50 [9]: Not Active; Ki [9]: Not Active; IC50 ([10]; read-out: IC50): 18.1 µM; Ki ([10]; read-out: Ki): 7.01 µM; IC50 ([11]; read-out: IC50): 46.3 µM; IC50 [12]: Not Active; Ki [12]: Not Active
3 | GOLD SODIUM THIOMALATE | Not Active | Not Active | Not Active | Not Active | Not Active | Not Active | Not Active | Not Active | Not Active | Not Active | Not Active | Not Active | Not Active | Not Active | Not Active | Not Active | Not Active | Not Active | Not Active | Not Active | IC50 ([6]; read-out: IC50): 0.811 µM; IC50 [7]: Not Active; Ki [7]: Not Active; IC50 [8]: Not Active; Ki [8]: Not Active; IC50 [9]: Not Active; Ki [9]: Not Active; IC50 [10]: Not Active; Ki [10]: Not Active; IC50 [11]: Not Active; Ki [11]: Not Active; IC50 [12]: Not Active; Ki [12]: Not Active
